Data taken from patent US8329645B2, “Polymyxin derivatives and uses thereof” (priority 2008, dated 2012).
Values after ≈ are worked out from the molar mass of the structure shown. Where a SMILES comes first, the peptide text is derived from it. Bridges are numbered along the chain shown (N, C = ends). [ ]: non-standard residue; d: D form. The star is where a group is joined. Decanoyl = CCCCCCCCCC(=O)*; Dab = NCC[C@H](N)C(=O)O

Assays:
P. aeruginosa F58 = settings: F58
Procedure: (§1) Polymyxin B sulfate (Sigma-Aldrich, St. Louis, Mo., USA) was used as a control. […] The bacterial test strains originated from ATCC (10 strains), CCUG (11 strains), and NCTC (3 strains). Fourteen (14) strains (the F-strains) were purchased from Mobidiag Ltd., Helsinki, Finland.
(§2) The inocula were prepared by adjusting the bacterial suspensions to a density equivalent to OD546 nm˜0.3 (˜10^8 CFU/ml˜0.5 McFarland) the yeast suspension to a density equivalent to OD546 nm˜0.75 (˜2×10^7 CFU/ml)._The suspensions were diluted to 10^7 CFU/ml. The plates were inoculated by using a Denley Multipoint Inoculator, 1 μl per spot corresponding to approx. 10^4 CFU/spot. Plates were incubated for 16-20 hours at 35° C.

E. cloacae F232 = settings: F232
Procedure: as §1, §2

E. coli NCTC 13353 = settings: NCTC 13353
Procedure: as §1, §2

E. cloacae CCUG 52947 = settings: CCUG 52947
Procedure: as §1, §2

K. pneumoniae ATCC 13883 = settings: ATCC 13883
Procedure: as §1, §2

S. aureus ATCC 25923 = settings: ATCC 25923
Procedure: as §1, §2

S. marcescens ATCC 8100 = settings: ATCC 8100
Procedure: as §1, §2

E. coli F19 = settings: F19
Procedure: as §1, §2

E. coli CCUG 41427 = settings: CCUG 41427
Procedure: as §1, §2

E. coli NCTC 13352 = settings: NCTC 13352
Procedure: as §1, §2

A. baumannii F264 = settings: F264
Procedure: as §1, §2

K. pneumoniae F136 = settings: F136
Procedure: as §1, §2

E. coli CCUG 41429 = settings: CCUG 41429
Procedure: as §1, §2

E. coli CCUG 41424 = settings: CCUG 41424
Procedure: as §1, §2

K. oxytoca ATCC 13182 = settings: ATCC 13182
Procedure: as §1, §2

[1] = test system: S. maltophilia ATCC 17444; settings: ATCC 17444
Procedure: as §1, §2

E. coli ATCC 25922 = settings: ATCC 25922
Procedure: as §1, §2

E. cloacae F230 = settings: F230
Procedure: as §1, §2

E. coli CCUG 41432 = settings: CCUG 41432
Procedure: as §1, §2

E. coli F9 = settings: F9
Procedure: as §1, §2

A. baumannii F263 = settings: F263
Procedure: as §1, §2

E. coli CCUG 41422 = test system: E. coli CCUG 41422
Procedure: as §1, §2

E. coli F10 = settings: F10
Procedure: as §1, §2

E. coli NCTC 13351 = settings: NCTC 13351
Procedure: as §1, §2

C. albicans ATCC 28366 = settings: ATCC 28366
Procedure: as §1, §2

A. baumannii ATCC 19606 [2] = settings: ATCC 19606
Procedure: as §1, §2

K. pneumoniae CCUG 45421 = settings: CCUG 45421
Procedure: as §1, §2

K. pneumoniae F144 = settings: K. pneumoniae F144
Procedure: as §1, §2

P. aeruginosa ATCC 27853 = settings: ATCC 27853
Procedure: as §1, §2

K. pneumoniae F145 = settings: F145
Procedure: as §1, §2

E. coli F8 = settings: F8
Procedure: as §1, §2

K. oxytoca CCUG 51683 = settings: CCUG 51683
Procedure: as §1, §2

E. coli IH3080 = settings: IH3080
Procedure: as §1, §2

E. cloacae ATCC 23355 = settings: ATCC 23355
Procedure: as §1, §2

C. freundii ATCC 8090 = settings: ATCC 8090
Procedure: as §1, §2

E. coli CCUG 41425 = settings: CCUG 41425
Procedure: as §1, §2

E. cloacae F231 = settings: F231
Procedure: as §1, §2

P. aeruginosa CCUG 51971 = test system: P. aeruginosa CCUG 51971
Procedure: as §1, §2

A. baumannii ATCC 19606 [3] = assay: Sensitization to rifampin: growth inhibition around wells on LB plates containing rifampin; format: cell-based, Acinetobacter baumannii; settings: 4 μg

`CCCCCCCCCC(=O)N[C@H](C(=O)N[C@H](CO)C(=O)N[C@H]1CCNC(=O)[C@H]([C@@H](C)O)NC(=O)[C@H](CCN)NC(=O)[C@H](CCN)NC(=O)[C@H](CC(C)C)NC(=O)[C@@H](Cc2ccccc2)NC(=O)[C@H](CCN)NC1=O)[C@@H](C)O` [NAB 740, DA-Thr-DSer-cy[Dab-Dab-DPhe-Leu-Dab-Dab-Thr-]] (Decanoyl-T[dS][Dab][Dab][dF]L[Dab][Dab]T; lactam 3-C) was tested, and the MIC (P. aeruginosa F58) was 4 µg/mL (≈ 3.62 µM), the MIC (E. cloacae F232) was 2 µg/mL (≈ 1.81 µM) and the MIC (E. coli NCTC 13353) was 2 µg/mL (≈ 1.81 µM). It also gave an MIC (E. cloacae CCUG 52947) of 2 µg/mL (≈ 1.81 µM), an MIC (K. pneumoniae ATCC 13883) of 8 µg/mL (≈ 7.24 µM) and an MIC (S. aureus ATCC 25923) greater than 32 µg/mL. The MIC (S. marcescens ATCC 8100) was greater than 32 µg/mL, the MIC (E. coli F19) was 1 µg/mL (≈ 0.906 µM) and the MIC (E. coli CCUG 41427) was 1 µg/mL (≈ 0.906 µM). The MIC (E. coli NCTC 13352) was 1 µg/mL (≈ 0.906 µM), the MIC (A. baumannii F264) was 2 µg/mL (≈ 1.81 µM) and the MIC (K. pneumoniae F136) was 2 µg/mL (≈ 1.81 µM). For the same compound, the MIC (E. coli CCUG 41429) was 1 µg/mL (≈ 0.906 µM), the MIC (E. coli CCUG 41424) was 2 µg/mL (≈ 1.81 µM) and the MIC (K. oxytoca ATCC 13182) was 2 µg/mL (≈ 1.81 µM). The MIC [1] was 8 µg/mL (≈ 7.24 µM), the MIC (E. coli ATCC 25922) was 2 µg/mL (≈ 1.81 µM) and the MIC (E. cloacae F230) was 2 µg/mL (≈ 1.81 µM). The MIC (E. coli CCUG 41432) was 2 µg/mL (≈ 1.81 µM), the MIC (E. coli F9) was 2 µg/mL (≈ 1.81 µM) and the MIC (A. baumannii F263) was 2 µg/mL (≈ 1.81 µM). It also gave an MIC (E. coli CCUG 41422) of 2 µg/mL (≈ 1.81 µM), an MIC (E. coli F10) of 2 µg/mL (≈ 1.81 µM) and an MIC (E. coli NCTC 13351) of 1 µg/mL (≈ 0.906 µM). It also gave an MIC (C. albicans ATCC 28366) greater than 32 µg/mL, an MIC (A. baumannii ATCC 19606 [2]) of 4 µg/mL (≈ 3.62 µM) and an MIC (K. pneumoniae CCUG 45421) of 4 µg/mL (≈ 3.62 µM). For the same compound, the MIC (K. pneumoniae F144) was 16(−4) μg/ml, the MIC (P. aeruginosa ATCC 27853) was 4 µg/mL (≈ 3.62 µM) and the MIC (K. pneumoniae F145) was 2 µg/mL (≈ 1.81 µM). It also gave an MIC (E. coli F8) of 2 µg/mL (≈ 1.81 µM), an MIC (K. oxytoca CCUG 51683) of 2 µg/mL (≈ 1.81 µM) and an MIC (E. coli IH3080) of 2 µg/mL (≈ 1.81 µM). For the same compound, the MIC (E. cloacae ATCC 23355) was 2 µg/mL (≈ 1.81 µM), the MIC (C. freundii ATCC 8090) was 2 µg/mL (≈ 1.81 µM) and the MIC (E. coli CCUG 41425) was 2 µg/mL (≈ 1.81 µM). The MIC (E. cloacae F231) was 2 µg/mL (≈ 1.81 µM), the MIC (P. aeruginosa CCUG 51971) was 8 µg/mL (≈ 7.24 µM) and the “growth inhibition around a well in the presence of rifampin” value (A. baumannii ATCC 19606 [3]; rifampin 0 μg/ml) was 133 square millimeters. For the same compound, the “growth inhibition around a well in the presence of rifampin” value (A. baumannii ATCC 19606 [3]; rifampin 0.3 μg/ml) was 154 square millimeters.
